Reference: patent publication US5712397A, “Amino acid derivatives, processes for preparing them and pharmaceutical compositions containing these compounds” (Boehringer Ingelheim GmbH, priority 1994, dated 1998)

Biological target: T1, NK1-receptor (substance P-receptor) (Homo sapiens, UniProt P25103)
T1 construct: expressed in transfected cells; host or cells: IM-9 human lymphoblastoma cells
Assay: NK1-receptor affinity: displacement of 125I-labelled substance P on human lymphoblastoma cells (IM-9) with cloned NK1-receptors
Type: binding
Protocol: The receptor affinity for the NK1 -receptor (substance P-receptor) was determined on human lymphoblastoma cells (IM-9) with cloned NK1 -receptors, by measuring the displacement of ^125 I-labelled substance p.

T1 sequence (P25103 whole entry): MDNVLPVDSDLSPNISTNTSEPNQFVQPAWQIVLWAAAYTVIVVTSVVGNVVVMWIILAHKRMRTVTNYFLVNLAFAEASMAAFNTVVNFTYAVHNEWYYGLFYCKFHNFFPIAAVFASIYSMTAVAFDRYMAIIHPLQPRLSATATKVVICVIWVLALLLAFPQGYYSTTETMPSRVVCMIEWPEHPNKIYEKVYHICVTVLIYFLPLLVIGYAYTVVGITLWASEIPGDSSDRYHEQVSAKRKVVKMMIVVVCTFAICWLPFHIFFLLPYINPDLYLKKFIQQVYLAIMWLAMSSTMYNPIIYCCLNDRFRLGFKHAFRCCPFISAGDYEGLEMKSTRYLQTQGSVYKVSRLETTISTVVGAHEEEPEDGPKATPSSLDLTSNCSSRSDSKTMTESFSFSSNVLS

IC50	SMILES
0.75 nM	CCc1ccccc1CN1C(=O)C(NC(=O)[C@@H]2C[C@@H](O)CN2C(=O)c2cn(C)c3ccccc23)Cc2cc(OC)c(OC)cc21 (single isomer, unassigned) [Example 6]
0.4 nM	COc1cc2c(cc1OC)N(Cc1ccccc1Cl)C(=O)C(NC(=O)[C@@H]1C[C@@H](O)CN1C(=O)c1cn(C)c3ccccc13)C2 (single isomer, unassigned) [Example 1]
